Test results: ChEMBL document CHEMBL1201862, “PubChem BioAssay data set” (2004)
The source made the active and inactive calls.

Legend:
[1] = system: HEK293; experiment: cells; settings: Homo sapiens
[2] = target: Nucleotide-binding oligomerization domain-containing protein 2 (Homo sapiens, UniProt Q9HC29); experiment: PubChem AID 2334; type: functional
[3] = target: T1, Nucleotide-binding oligomerization domain-containing protein 1 (Homo sapiens, UniProt Q9Y239); experiment: blockers of NOD1 pathway activity – revised, SAR follow-up (AID 2333); type: functional
T1 sequence (Q9Y239 whole entry): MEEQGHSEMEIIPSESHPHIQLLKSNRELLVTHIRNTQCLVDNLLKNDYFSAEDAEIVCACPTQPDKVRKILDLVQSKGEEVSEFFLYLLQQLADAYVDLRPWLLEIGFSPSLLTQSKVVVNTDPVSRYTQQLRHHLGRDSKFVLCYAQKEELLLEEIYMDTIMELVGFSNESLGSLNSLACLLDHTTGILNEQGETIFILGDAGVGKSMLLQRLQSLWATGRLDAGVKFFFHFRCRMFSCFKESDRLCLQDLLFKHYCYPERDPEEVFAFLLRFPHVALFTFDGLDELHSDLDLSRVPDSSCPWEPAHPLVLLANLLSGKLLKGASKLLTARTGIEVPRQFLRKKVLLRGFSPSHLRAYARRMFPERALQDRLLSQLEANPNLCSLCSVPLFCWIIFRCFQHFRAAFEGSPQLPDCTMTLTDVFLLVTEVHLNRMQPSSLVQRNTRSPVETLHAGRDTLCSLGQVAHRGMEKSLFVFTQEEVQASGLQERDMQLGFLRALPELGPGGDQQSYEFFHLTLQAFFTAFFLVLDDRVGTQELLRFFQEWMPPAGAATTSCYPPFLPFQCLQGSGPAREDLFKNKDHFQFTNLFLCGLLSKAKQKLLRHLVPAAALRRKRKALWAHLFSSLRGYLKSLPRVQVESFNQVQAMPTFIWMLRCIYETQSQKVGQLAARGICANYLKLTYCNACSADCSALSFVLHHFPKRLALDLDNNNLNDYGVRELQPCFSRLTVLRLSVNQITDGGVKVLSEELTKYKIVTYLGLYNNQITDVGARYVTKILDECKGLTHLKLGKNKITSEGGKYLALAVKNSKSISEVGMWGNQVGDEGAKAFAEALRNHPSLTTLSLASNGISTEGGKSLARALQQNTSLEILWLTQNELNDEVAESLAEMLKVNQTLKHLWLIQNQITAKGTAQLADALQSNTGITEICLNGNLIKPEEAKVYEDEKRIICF

[4] = target: Tumor necrosis factor (Homo sapiens, UniProt P01375); experiment: analog potency on TNFa NF-kB signaling – cell-based, revised, SAR follow-up (AID 2337); type: functional
[5] = Luminescence Cell-Based Dose Retest to Confirm Inhibitors of Cancer Stem Cells. [Related pubchem assays (depositor defined):AID2717, AID2721]; type: functional; settings: Homo sapiens
[6] = target: Mu-type opioid receptor (Homo sapiens, UniProt P35372); experiment: (§1) Counterscreen for agonists of heterodimerization of the mu 1 (OPRM1) and delta 1 (OPRD1) opioid receptors: Luminescence-based cell-based high throughput dose response assay to identify agonists of OPRM1 homodimerization.; type: functional
[7] = target: 5-hydroxytryptamine receptor 5A (Homo sapiens, UniProt P47898); experiment: Counterscreen for agonists of OPRM1-OPRD1 heterodimerization: luminescence-based cell-based high throughput dose response assay to identify agonists of 5-hydroxytryptamine (serotonin) 5A receptor (HTR5A). [Related pubchem assays (depositor defined):AID504326, AID504355, AID504692, AID504904, AID504905]; type: functional
[8] = target: Delta-type opioid receptor (Homo sapiens, UniProt P41143); experiment: as §1, with “of OPRD1” for “of OPRM1”, “homodimerization. [Related pubchem assays (depositor defined):AID504326, AID504355, AID504692, AID504904, AID504905]” for “homodimerization.”; type: functional
[9] = system: Vero; experiment: cells; type: functional; settings: Chlorocebus sabaeus
[10] = microbe, parasite or virus in culture; type: functional; settings: Mycobacterium tuberculosis
[11] = target: T2, Streptokinase A (Streptococcus pyogenes serotype M1, UniProt P10520); experiment: viability-normalized secreted streptokinase activity reduction – plasminogen activation absorbance, OD405, dose response (AID 1914); type: functional, Streptococcus pyogenes M1 GAS;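 further: secreted streptokinase activity via plasminogen activation per viability signal from cell pellet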
T2 sequence (P10520 whole entry): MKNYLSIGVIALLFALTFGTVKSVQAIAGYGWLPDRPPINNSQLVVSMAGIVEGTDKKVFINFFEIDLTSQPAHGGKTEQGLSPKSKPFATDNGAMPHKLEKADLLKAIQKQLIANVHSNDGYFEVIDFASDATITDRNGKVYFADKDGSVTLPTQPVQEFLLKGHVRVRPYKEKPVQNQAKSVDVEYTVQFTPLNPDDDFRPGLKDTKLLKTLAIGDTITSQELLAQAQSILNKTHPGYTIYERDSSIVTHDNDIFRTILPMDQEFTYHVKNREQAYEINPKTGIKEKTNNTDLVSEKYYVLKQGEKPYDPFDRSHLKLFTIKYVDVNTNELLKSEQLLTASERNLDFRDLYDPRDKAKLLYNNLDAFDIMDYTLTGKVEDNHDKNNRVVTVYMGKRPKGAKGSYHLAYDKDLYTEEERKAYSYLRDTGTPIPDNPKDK

[12] = system: Streptococcus sp. 'group A'; experiment: Streptococcus pyogenes SK(-)GAS viability under kanamycin – luminescence, BacTiterGlo, confirmation, counter-screen for streptokinase expression inhibitor project, dose response (AID 1900); type: functional, organism-based
[13] = non-specific 3'UTR reporter inhibition in Clone20-Shn3RL – cell-based, Renilla luciferase, cherry-picked, counter-screen for Shn3 inhibitor project, dose response (AID 624133); type: functional
[14] = system: Streptococcus; experiment: GAS UMAA2166 growth inhibition – luminescence, BacTiterGlo, counter-screen for streptokinase expression inhibitor project, dose response (AID 1915); type: functional, organism-based;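 further: potency for reduction of bacterial viability or growth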
[15] = system: Vero; experiment: cells; type: functional, cell-based; settings: Chlorocebus sabaeus
[16] = reduction of Shn3 3'UTR-driven luciferase in osteoblasts – cell-based, Clone20 osteoblasts, firefly luciferase, cherry-picked, dose response (AID 624132); type: functional;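 further: firefly luciferase luminescence from reporter carrying the Shn3 3'UTR in osteoblasts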
[17] = target: Lysine-specific demethylase 4C (Homo sapiens, UniProt Q9H3R0); experiment: inhibition of JMJD2C H3K9me3 demethylation – biochemical, DELFIA europium, cherry-picked samples, dose response (AID 488835); type: functional
[18] = target: T3, Dual specificity protein phosphatase 3 (Homo sapiens, UniProt P51452); experiment: VHR1 phosphatase inhibitors, primary screen, biochemical, absorbance, uHTS (AID 1654)
[19] = target: T4, Voltage-gated N-type calcium channel alpha-1B subunit/Amyloid beta A4 precursor protein-binding family A member 1 (Homo sapiens, UniProt Q00975+Q02410); type: protein assay
[20] = target: T4, Voltage-gated N-type calcium channel alpha-1B subunit/Amyloid beta A4 precursor protein-binding family A member 1; type: protein assay; remark: listed apart in the source
[21] = target: T5, Dual specificity protein phosphatase 6 (Rattus norvegicus, UniProt Q64346); experiment: inhibition of rat DUSP6 enzyme activity – biochemical, in vitro, primary screen (AID 425)
T5 sequence (Q64346 whole entry): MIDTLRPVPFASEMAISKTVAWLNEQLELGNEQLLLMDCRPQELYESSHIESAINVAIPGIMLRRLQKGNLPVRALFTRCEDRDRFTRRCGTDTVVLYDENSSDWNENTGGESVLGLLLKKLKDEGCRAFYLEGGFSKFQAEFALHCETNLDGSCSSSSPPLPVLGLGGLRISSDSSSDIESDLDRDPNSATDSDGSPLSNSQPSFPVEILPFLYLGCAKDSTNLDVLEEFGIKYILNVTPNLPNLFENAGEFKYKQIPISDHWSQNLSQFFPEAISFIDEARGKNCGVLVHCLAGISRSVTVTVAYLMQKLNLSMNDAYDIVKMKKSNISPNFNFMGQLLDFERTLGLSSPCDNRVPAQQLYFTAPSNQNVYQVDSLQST

[22] = target: T3, Dual specificity protein phosphatase 3; experiment: VHR1 phosphatase inhibitors, biochemical (AID 1878)
[23] = target: Albumin (Bos taurus, UniProt P02769); experiment: Counterscreen for inhibitors of T-cell receptor (TCR)-CD3 interaction: Fluorescence-based biochemical high throughput dose response assay to identify inhibitors of T-cell receptor (TCR)-CD3 interaction using a TAMRA-labeled BSA probe.; type: functional
[24] = luciferase reporter signal suppression in cells – H4 neuroglioma cells, luminescence, dose response (AID 1990); type: functional, cell-based
[25] = system: HEK293; experiment: EBV LMP1 TES2 canonical NF-kB signalling blockers – cell-based, HEK293, luciferase, cherry-pick, dose response (AID 588343); type: functional; settings: Homo sapiens
[26] = system: INS1; experiment: INS-1E survival protection against cytokine death – cell-based, luminescence, retest, dose response (AID 449756); type: functional; settings: Rattus norvegicus;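 further: cell death triggered by IL-1 beta plus TNF-alpha plus IFN-gamma mixture; protective hits raise ATP signal compared with cytokine alone wells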
[27] = target: T6, Type-1 angiotensin II receptor (Homo sapiens, UniProt P30556); experiment: antagonism of angiotensin II type 1 receptor – cell-based, uHTS hits, selectivity assay for APJ receptor antagonist project, dose response (AID 463214); type: functional;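 further: antagonist potency against angiotensin II stimulated AT1 response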
T6 sequence (P30556 whole entry): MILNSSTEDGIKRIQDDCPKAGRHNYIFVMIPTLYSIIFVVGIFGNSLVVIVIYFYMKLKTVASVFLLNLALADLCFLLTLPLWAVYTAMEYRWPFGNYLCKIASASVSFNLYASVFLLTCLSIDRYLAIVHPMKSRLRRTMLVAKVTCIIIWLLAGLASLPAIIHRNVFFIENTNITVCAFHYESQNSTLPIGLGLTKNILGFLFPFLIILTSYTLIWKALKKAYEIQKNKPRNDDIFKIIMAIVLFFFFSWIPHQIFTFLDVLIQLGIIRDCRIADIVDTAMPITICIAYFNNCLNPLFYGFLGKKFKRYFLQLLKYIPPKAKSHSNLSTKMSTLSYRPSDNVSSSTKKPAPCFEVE

[28] = alpha-synuclein stem-loop luciferase translation blockers – H4 neuroglioma cells, luminescence, confirmation (AID 1988); type: functional, cell-based
[29] = target: Nonstructural protein 1 (Influenza A virus, UniProt Q194T2); type: functional, Influenza A virus (A/California/07/2009(H1N1))
[30] = target: T7, Beta-galactosidase (Escherichia coli, UniProt Q8VNN2); experiment: Dose response counterscreen for EBI2 assay utilizing the enzyme, b-galactosidase.; type: functional
[31] = Luminescence Cell-Based Dose Response HTS to Identify Inhibitors of 5'UTR Stem-Loop Driven Prion Protein mRNA Translation in H4 Neuroglioblastoma Cells. [Related pubchem assays: 1827 (Project Summary), 1813 (Primary HTS)]; type: functional
[32] = target: T7, Beta-galactosidase; experiment: PubChem AID 485352; type: functional

T7 sequence (Q8VNN2 whole entry): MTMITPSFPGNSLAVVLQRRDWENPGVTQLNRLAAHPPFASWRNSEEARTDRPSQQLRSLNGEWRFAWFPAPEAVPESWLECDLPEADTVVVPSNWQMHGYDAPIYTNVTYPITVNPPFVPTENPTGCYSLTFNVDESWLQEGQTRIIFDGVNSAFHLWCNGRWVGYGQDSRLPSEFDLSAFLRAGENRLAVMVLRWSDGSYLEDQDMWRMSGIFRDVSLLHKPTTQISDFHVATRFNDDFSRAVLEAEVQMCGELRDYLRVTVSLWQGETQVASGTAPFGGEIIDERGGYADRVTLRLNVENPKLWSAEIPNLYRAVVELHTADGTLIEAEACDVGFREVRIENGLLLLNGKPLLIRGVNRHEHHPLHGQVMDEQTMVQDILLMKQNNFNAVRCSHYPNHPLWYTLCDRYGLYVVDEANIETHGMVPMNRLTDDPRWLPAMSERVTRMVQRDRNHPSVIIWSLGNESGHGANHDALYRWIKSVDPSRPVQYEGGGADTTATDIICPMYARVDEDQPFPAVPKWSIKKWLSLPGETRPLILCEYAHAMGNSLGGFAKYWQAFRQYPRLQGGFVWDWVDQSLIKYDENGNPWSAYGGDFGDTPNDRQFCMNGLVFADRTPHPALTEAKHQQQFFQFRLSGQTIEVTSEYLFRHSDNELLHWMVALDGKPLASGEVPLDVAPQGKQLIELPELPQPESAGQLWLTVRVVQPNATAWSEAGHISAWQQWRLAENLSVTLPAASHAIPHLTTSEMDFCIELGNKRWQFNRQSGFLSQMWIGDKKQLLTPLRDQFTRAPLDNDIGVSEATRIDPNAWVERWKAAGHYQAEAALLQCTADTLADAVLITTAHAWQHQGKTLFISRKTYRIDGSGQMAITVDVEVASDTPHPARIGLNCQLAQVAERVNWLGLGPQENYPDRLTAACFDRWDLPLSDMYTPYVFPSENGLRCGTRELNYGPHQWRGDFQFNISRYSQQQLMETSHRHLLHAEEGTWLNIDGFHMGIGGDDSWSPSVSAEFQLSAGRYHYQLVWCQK
T4 sequence (Q00975 whole entry): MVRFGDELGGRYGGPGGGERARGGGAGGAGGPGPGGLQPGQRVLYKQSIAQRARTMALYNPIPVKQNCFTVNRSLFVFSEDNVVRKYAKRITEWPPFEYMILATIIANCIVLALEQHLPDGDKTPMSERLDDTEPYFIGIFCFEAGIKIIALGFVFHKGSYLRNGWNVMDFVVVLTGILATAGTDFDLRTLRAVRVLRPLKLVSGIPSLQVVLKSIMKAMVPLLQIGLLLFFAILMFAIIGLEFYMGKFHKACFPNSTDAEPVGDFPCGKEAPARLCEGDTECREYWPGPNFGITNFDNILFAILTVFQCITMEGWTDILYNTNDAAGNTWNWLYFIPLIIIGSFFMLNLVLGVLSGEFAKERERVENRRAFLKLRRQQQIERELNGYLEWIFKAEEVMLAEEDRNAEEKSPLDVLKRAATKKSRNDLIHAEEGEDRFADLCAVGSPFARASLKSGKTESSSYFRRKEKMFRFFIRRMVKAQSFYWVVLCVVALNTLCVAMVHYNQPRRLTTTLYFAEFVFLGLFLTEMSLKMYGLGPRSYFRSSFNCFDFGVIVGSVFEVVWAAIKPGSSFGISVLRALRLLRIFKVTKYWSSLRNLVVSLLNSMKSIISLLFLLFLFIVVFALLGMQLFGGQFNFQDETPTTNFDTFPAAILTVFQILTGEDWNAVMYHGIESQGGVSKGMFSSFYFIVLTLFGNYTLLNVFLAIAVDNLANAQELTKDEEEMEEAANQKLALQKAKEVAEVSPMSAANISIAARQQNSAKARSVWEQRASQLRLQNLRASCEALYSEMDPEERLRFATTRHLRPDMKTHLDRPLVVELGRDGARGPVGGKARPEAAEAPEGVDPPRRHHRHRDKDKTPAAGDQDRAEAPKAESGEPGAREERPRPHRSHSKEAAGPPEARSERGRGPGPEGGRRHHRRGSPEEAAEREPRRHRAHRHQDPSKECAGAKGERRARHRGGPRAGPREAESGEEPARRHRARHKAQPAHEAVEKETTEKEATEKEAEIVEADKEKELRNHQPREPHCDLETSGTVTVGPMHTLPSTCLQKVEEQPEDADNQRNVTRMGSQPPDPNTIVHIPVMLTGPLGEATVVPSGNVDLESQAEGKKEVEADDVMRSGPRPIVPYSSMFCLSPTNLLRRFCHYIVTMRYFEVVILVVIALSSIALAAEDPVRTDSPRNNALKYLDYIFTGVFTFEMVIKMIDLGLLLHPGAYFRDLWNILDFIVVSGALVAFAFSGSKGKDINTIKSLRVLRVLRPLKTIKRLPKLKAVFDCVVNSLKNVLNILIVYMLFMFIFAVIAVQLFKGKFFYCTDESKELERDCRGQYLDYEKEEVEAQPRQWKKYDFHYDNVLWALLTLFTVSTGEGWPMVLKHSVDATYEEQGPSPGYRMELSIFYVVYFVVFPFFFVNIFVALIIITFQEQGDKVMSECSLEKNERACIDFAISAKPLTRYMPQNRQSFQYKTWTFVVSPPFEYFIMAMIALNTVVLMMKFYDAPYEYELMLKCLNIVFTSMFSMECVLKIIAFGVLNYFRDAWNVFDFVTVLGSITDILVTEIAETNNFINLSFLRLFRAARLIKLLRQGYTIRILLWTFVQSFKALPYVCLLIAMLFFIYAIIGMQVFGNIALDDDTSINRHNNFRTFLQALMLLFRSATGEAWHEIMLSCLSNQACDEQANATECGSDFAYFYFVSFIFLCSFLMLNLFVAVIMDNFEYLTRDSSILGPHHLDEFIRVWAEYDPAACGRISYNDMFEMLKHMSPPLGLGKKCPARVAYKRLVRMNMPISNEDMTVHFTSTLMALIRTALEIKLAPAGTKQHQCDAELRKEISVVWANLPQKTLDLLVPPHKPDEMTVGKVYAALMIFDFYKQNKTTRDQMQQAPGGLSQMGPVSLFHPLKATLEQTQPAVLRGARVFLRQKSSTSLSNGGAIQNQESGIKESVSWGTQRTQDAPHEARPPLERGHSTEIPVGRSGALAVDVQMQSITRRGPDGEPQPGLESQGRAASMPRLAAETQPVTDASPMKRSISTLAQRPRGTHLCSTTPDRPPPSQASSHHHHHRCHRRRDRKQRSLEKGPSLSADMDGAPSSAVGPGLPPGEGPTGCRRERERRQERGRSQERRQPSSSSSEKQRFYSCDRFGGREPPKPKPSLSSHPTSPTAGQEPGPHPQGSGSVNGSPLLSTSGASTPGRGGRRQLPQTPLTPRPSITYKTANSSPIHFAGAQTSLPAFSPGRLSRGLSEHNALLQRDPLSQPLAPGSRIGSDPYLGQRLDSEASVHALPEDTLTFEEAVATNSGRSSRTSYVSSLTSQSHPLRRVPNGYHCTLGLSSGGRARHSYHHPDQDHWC
T4 sequence (Q02410 whole entry): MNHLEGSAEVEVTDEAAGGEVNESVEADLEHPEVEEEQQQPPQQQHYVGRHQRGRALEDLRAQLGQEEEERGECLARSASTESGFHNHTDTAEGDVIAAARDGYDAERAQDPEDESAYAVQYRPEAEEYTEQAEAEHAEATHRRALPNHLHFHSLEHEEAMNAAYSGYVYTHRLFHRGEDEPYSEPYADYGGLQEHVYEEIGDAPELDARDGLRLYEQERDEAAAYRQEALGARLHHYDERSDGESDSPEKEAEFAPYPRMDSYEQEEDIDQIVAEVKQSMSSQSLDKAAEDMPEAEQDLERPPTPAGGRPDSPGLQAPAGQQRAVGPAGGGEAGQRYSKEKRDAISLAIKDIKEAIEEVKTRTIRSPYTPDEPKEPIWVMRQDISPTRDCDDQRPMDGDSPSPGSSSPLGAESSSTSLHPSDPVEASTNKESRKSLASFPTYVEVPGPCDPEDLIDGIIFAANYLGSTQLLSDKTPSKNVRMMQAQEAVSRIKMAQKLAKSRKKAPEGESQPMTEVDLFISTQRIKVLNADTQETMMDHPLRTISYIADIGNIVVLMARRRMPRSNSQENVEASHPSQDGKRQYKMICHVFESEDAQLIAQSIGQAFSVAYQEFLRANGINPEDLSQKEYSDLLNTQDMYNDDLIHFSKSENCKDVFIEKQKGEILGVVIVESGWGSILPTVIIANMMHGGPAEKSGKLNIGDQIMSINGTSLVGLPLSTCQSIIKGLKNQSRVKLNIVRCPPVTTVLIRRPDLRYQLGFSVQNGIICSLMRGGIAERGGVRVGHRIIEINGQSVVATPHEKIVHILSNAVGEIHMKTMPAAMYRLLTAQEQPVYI
T3 sequence (P51452 whole entry): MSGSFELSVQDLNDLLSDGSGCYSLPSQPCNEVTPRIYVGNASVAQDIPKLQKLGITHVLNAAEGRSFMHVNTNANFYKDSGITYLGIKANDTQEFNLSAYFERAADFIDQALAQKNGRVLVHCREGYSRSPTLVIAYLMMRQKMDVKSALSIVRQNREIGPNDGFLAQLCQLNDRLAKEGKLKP
Sequence of 5-hydroxytryptamine receptor 5A (P47898 whole entry): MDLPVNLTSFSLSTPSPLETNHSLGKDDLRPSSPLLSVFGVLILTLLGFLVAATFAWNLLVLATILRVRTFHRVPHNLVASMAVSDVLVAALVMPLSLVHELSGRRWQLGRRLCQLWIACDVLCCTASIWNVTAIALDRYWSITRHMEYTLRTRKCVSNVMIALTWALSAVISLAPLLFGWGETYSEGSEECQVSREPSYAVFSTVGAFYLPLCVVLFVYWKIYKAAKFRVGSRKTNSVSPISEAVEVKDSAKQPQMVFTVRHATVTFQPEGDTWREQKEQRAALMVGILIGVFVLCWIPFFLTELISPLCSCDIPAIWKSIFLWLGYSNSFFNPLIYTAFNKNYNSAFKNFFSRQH
Sequence of Nonstructural protein 1 (Q194T2 whole entry): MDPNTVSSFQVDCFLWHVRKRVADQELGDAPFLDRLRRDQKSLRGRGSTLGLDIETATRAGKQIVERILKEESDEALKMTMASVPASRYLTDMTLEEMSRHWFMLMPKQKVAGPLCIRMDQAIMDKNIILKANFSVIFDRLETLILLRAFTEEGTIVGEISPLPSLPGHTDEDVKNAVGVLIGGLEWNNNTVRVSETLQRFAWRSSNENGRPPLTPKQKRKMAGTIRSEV

COC(=O)c1c(NC(=O)c2ccccc2)sc2c1CC(C)(C)OC2
IC50 [1]: > 20 µM (inactive) | IC50 [2]: > 20 µM (inactive) | IC50 [3]: > 20 µM (inactive) | IC50 [4]: > 20 µM (inactive) | AC50 [5]: 9.23 µM (active)

CSCCCNC(=O)c1ccc(OC2CCN(CCc3ccccc3)CC2)cc1
EC50 [6]: > 92.5 µM (inactive) | EC50 [7]: > 92.5 µM (inactive) | EC50 [8]: > 92.5 µM (inactive)

O=C(CSc1ccccn1)Nc1nonc1[N+](=O)[O-]
CC50 [9]: 20.7 µM (active) | CC50 [10]: 24.5 µM (active) | EC50 [11]: > 150 µM (not active) | EC50 [12]: 5.77 µM (active) | AC50 [13]: 12.5 µM (active) | EC50 [14]: > 150 µM (not active) | IC50 [15]: > 25 µM (active) | AC50 [16]: 5 µM (active)

COc1cc2c(cc1OC)C(COc1ccc(F)cc1)NCC2 (centres undefined)
AC50 [17]: 25.2 µM (active)

Cc1cc(=O)oc2cc(OCC(=O)N/N=C/c3cc([N+](=O)[O-])ccc3O)ccc12
IC50 [18]: 4.25 µM (active) | IC50 [19]: > 50 µM (inactive) | IC50 [20]: > 56.8 µM (not active) | IC50 [21]: 24 µM (active) | IC50 [22]: 2.6 µM (active) | IC50 [23]: > 94.1 µM (inactive)

C/C(=N/NC(=O)c1ccc(C(C)(C)C)cc1)c1ccccn1
EC50 [24]: 3.75 µM (active) | CC50 [9]: 2.62 µM (active) | AC50 [25]: 1.31 µM (active) | AC50 [26]: 0.497 µM (active) | IC50 [27]: 3.48 µM (active) | EC50 [28]: 0.455 µM (active) | IC50 [15]: > 25 µM (active) | IC50 [29]: 6.97 µM (active) | IC50 [30]: > 80 µM (inactive) | EC50 [31]: 0.585 µM (active) | EC50 [32]: > 40 µM (inactive)
